Experimental data reported in patent US11903386B2, “Strigolactone analogs and their usage in plant control” (King Abdullah University of Science and Technology, priority 2016, dated 2024).

Key:
parasite seed = details: in vivo; cited from earlier work
rice d10 mutant = assay: Rice micro tillering bioassay, d10 mutant; assay type: in vivo; details: 2.5 μM, hydroponic culture; untreated (Mock) 4 tillers per plant
Method: (§1) Rice seeds (WT, d3, d10) were surface-sterilized by washing with 70% ethanol for 1 min and then with 2.5% sodium hypochlorite for 15 min. Seeds were then rinsed thoroughly with sterile MilliQ water and incubated in water for 2 days at 30° C. in the dark. Pre-germinated seeds were transferred to filter papers containing ½ strength MS medium in 90 mm petri dishes and incubated at 30° C. under fluorescent white light (130-180 μM m^−2 s^−1) for one week. Seven day-old seedlings were transferred to 50 ml falcon tubes (one seedling per tube) containing modified half-strength Hoagland nutrient solution and grown in greenhouse. Plants were treated with MPs at 2.5 μM-2.5×10-7 μM, using GR24 as positive control. The compounds were applied six times, twice a week. Number of tillers per plant, plant height and fresh biomass were measured at final harvest.
Statistical analyses were carried out using statistical software package R (version 3.2.2). Dose-response curves and Half Maximum Effective Concentrations (EC50) were calculated to determine optimum amount of MPs. Synthetic strigolactone analog GR24 was used as reference to estimate efficacy of selected compounds. EC50 and estimated response were calculated using drc package (https://cran.r390 project.org/web/packages/drc/) with a Four Parameter Logistic Curve (Dose Response Curve) (Ritz and Streibig, 2005).

rice d3 mutant = assay: Rice micro tillering bioassay, SL insensitive d3 mutant; assay type: in vivo; details: 2.5 μM, hydroponic culture
Method: as §1

rice leaf segments = assay: Dark-induced leaf senescence of rice leaf segments; assay type: in vivo, O. sativa, var. Shiokari
Method: One week old rice (O. sativa, var. Shiokari) seedlings were established as mentioned above. Uniform seedlings were transferred to 50 ml tubes containing half strength Hoaglands nutrient solution for 7 days and grown in an incubator under white fluorescent light (130-180 μM m^−2 s^−1) with 16 h:8 h (L/D) at 28° C. for one week. Leaf segments of 2 cm were cut from middle part of third leaves of rice plants. Each segment was put in a well (in 24-well plates) containing 2 ml of 2.5 mM MES buffer with 0.05% Tween-20, and incubated at 30° C. in the dark for 7 days. After application of MPs, color change, chlorophyll content, ion leakage and gene expression were monitored daily for 7 days.

ShHTL7 [1] = target: T1, ShHTL7 (Striga hermonthica, UniProt A0A0M3PNA2); assay: Intrinsic tryptophan fluorescence assay; assay type: binding; details: ShHTL7 10 μM, mean±SE (n=3); read-out: Kd, affinity of ShHTL7
T1 sequence (A0A0M3PNA2 1-271): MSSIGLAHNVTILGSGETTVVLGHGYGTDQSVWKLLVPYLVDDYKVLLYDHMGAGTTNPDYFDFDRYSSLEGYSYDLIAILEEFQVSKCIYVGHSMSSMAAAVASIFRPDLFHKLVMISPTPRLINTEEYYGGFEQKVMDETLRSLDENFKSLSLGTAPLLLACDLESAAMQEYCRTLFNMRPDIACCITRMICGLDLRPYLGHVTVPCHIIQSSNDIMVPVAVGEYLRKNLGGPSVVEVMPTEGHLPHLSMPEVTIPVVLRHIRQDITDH
Text: (§2) Striga hermonthica ShHTL7 cDNA, GenBank accession KR013127 was kindly provided by Prof. Tadao Asami (The University of Tokyo, Japan). Arabidopsis thaliana D14 (AtD14) cDNA, GenBank accession AY097402 was synthesized and cloned into pUC57 (GenScript). ShHTL7 and OsD14 cDNAs were amplified by RT-PCR using the primers shown in Table 2, digested with BamHI and XhoI, and ligated into BamHI/XhoI digested pGEX-6P-1 expression vector (GE Healthcare). Integrity of plasmids was confirmed by sequencing (KAUST Bioscience Core Lab). The plasmids were then transformed into E. coli BL21 (DE3) cells. The cells were grown in LB broth containing ampicillin ([…]), incubated at 37° C. until OD600 of 0.6 and induced with 0.1 mM isopropyl-β-D-thiogalactopyranoside (IPTG) at 16° C. for 16 h. Harvested cells were re-suspended in lysis buffer: 50 mM Tris-HCl (pH 8.0), 200 mM NaCl, 0.5% Tween-20 and 2 mM dithiothreitol (DTT). After sonication on ice for 10 mins, the lysate was centrifuged at 25,000 rpm for 30 min at 4° C. Supernatant was allowed to bind to glutathione-sepharose beads (GE Healthcare) for 2 h at 4° C., washed 3 times with buffer (50 mM Tris-HCl (pH 8.0), 200 mM NaCl, 2 mM DTT), and eluted by cleaving GST moiety with PreScission™ Protease (GE Healthcare) at 4° C. overnight. Eluted protein was further purified by gel filtration using HiLoad 16/60 Superdex200 prep grade column (GE Healthcare) on an AKTA prime system (GE Healthcare) in gel filtration buffer (10 mM HEPES pH 7.5, 50 mM KCl and 2 mM DTT). Protein eluted as a sharp single peak and purity was judged by 4-15% SDS-PAGE (Bio-Rad). Purified protein was concentrated using an Amicon 10K filter unit (Merck Millipore) and stored at −80° C. until use. Similar expression and purification protocol was followed for OsD14 protein, except that OsD14 was eluted from Glutathione resins using 0.2 mM reduced Glutathione (Sigma) without cutting GST tag.
ShHTL7 tryptophans were excited at 280 nm and […] emission intensity was measured at 333 nm. ShHTL7 (10 μM) was incubated at various dilutions (0.2, 0.4, 0.8, 1.6, 3.12, 6.25, 12.5, 25 and 50 μM) of GR24 and MPs for 30 minutes at room temperature before measurement. Each concentration point was measured in triplicates. Emitted fluorescence was monitored using spectraMaxi3 (Molecular Devices) plate reader in 96-wells black plates. Changes in tryptophan fluorescence intensity occur due to conformational changes in protein when it is bound to ligand; differences in fluorescence intensity were recorded and analyzed. Data were normalized and dissociation coefficient (Kd) values were calculated by fitting to a binding saturation single-site model with GraphPad (PRISM 6).

OsD14 = target: T2, OsD14 (Oryza sativa subsp. japonica, UniProt Q10QA5); assay: YLG (Yoshimulactone Green) competitive hydrolysis assay; assay type: biochemical, rice; details: with SE (n=3); read-out: IC50, competitive inhibition of OsD14 mediated YLG hydrolysis
T2 construct: made in house; host or cells: E. coli BL21 (DE3)
T2 sequence (Q10QA5 1-318): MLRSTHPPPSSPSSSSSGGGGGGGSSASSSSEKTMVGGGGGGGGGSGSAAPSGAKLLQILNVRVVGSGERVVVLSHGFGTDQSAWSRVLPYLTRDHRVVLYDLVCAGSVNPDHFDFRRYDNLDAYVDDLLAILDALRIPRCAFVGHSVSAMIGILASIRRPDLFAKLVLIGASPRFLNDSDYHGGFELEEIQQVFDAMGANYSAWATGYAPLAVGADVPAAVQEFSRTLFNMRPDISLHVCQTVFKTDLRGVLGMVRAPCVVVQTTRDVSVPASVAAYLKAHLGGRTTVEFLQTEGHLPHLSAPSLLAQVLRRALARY
Text: as §2
In vitro YLG hydrolysis assays were performed as described by Tsuchiya et al., 2015. Hydrolysis assays were carried out using 0.15 μM of recombinant protein OsD14 in a reaction buffer (100 mM PBS buffer, pH 7.3) with 0.1% dimethylsulfoxide (DMSO) at a 300 μl volume on a 96-well black plate (Thermo). For competitive assays, (±) GR24 and (±) MPs at range between 0.03 to 10 μM (or 100 μM) were co-incubated with 0.3 μM of YLG and reacted at 30° C. incubator for 15 min. Fluorescent intensity was measured with excitation at 485 nm and detected at 535 nm. IC50 values were calculated online (http://www.ic50.tk/index.html). Later, values were converted to the existing conditions when treated by 1.0 μM of recombinant proteins.

ShHTL7 [2] = target: T1, ShHTL7; assay: In vitro hydrolysis assay with ShHTL7 (HPLC); assay type: biochemical; details: 10 μM substrate, 37° C.
S. hermonthica = details: in vivo; cited from earlier work
P. ramosa = details: in vivo; cited from earlier work
Orobanche ramosa = details: tobacco field; cited from earlier work

CC1=CC(Oc2ccc(Br)cc2)OC1=O (stereo not shown) [4-Br debranone]
Activity in inducing parasite seed germination (parasite seed): moderate activity in inducing seed germination

CC1=C[C@H](O/C=C2/C(=O)O[C@@H]3c4ccccc4C[C@H]23)OC1=O [GR24, reference compound]
Number of tillers per plant, d10 mutant (rice d10 mutant): 1 tiller per plant
High-tillering phenotype of d3 mutant (tillers per plant) (rice d3 mutant): neither MPs nor GR24 could restore the high-tillering phenotype
Transcript levels of Senescence Associated Genes Osl20 and Osl295 (rice leaf segments; after 5 days of treatment): striking increase in their transcripts
Change in leaf color, time relative to control (rice leaf segments; dark, leaf segments): about two days earlier than the control
Change in leaf color, day observed (rice leaf segments; dark, leaf segments monitored 7 days): already on the third day after treatment
Ion leakage compared to the control (rice leaf segments; first five days): did not detect a difference
Ion leakage compared to the control (rice leaf segments; sixth and seventh day): striking increase
Chlorophyll content (rice leaf segments; third day): clear reduction
Kd (ShHTL7 [1]): 0.44 ± 0.21 µM
IC50 (OsD14): 5.68 ± 0.183 µM
Hydrolysis rate by ShHTL7 (ShHTL7 [2]): followed by MP7, GR24

COC(=O)/C(=C/O[C@H]1C=C(C)C(=O)O1)N1C(=O)c2ccccc2C1=O [Nijmegen-1]
Activity in S. hermonthica seed germination (S. hermonthica): weak germination response
EC50 relative to GR24, orders of magnitude higher (S. hermonthica): 3 orders of magnitude
Induction of seed germination in P. ramosa (P. ramosa): potent inducer
Result of suicidal germination field trial (Orobanche ramosa): very promising results
